Reference: PubChem BioAssay AID1919013 (Molecular Pharmacology Branch, DTP, NCI, 2023)

Test system: LG0703-F498-PDC complex spheroid growth
Experiment: Anticancer human tumor LG0703-F498-PDC patient-derived lung adenocarcinoma cell line growth inhibition [AhR]
Conditions: for IC50: curve of first compound; for viability, T/C: stronger effect = lower value
Outline: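 Agents were dosed in half-log steps down from roughly clinical Cmax, or from 10 microM where Cmax was unknown, alone and with AhR antagonists. Read-out: percent test/control growth of tumor spheroids containing HUVEC and MSC stromal cells.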

[1] = second compound 0.1 µM, first compound 0.00949 µM
[2] = second compound 0.1 µM, first compound 0.03 µM
[3] = second compound 0.1 µM, first compound 0.0949 µM
[4] = second compound 0.1 µM, first compound 0.3 µM
[5] = second compound 0.1 µM, first compound 0.949 µM
[6] = second compound 0.1 µM, first compound 3 µM
[7] = second compound 0.316 µM, first compound 0.00949 µM
[8] = second compound 0.316 µM, first compound 0.03 µM
[9] = second compound 0.316 µM, first compound 0.0949 µM
[10] = second compound 0.316 µM, first compound 0.3 µM
[11] = second compound 0.316 µM, first compound 0.949 µM
[12] = second compound 0.316 µM, first compound 3 µM
[13] = second compound 1 µM, first compound 0.00949 µM
[14] = second compound 1 µM, first compound 0.03 µM
[15] = second compound 1 µM, first compound 0.0949 µM
[16] = second compound 1 µM, first compound 0.3 µM
[17] = second compound 1 µM, first compound 0.949 µM
[18] = second compound 1 µM, first compound 3 µM
[19] = second compound 3.16 µM, first compound 0.00949 µM
[20] = second compound 3.16 µM, first compound 0.03 µM
[21] = second compound 3.16 µM, first compound 0.0949 µM
[22] = second compound 3.16 µM, first compound 0.3 µM
[23] = second compound 3.16 µM, first compound 0.949 µM
[24] = second compound 3.16 µM, first compound 3 µM
[25] = second compound 10 µM, first compound 0.00949 µM
[26] = second compound 10 µM, first compound 0.03 µM
[27] = second compound 10 µM, first compound 0.0949 µM
[28] = second compound 10 µM, first compound 0.3 µM
[29] = second compound 10 µM, first compound 0.949 µM
[30] = second compound 10 µM, first compound 3 µM
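Also: luminescence taken as a proxy for viable cell amount.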
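For viability, T/C in this document: percent of DMSO vehicle control where 100% means growth equal to vehicle.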

Cn1ncnc1C1c2n[nH]c(=O)c3cc(F)cc(c23)NC1c1ccc(F)cc1 (stereo not given) + CC(CO)NC(=O)c1cc(-c2ccc(Cl)cc2)nn(-c2cnn(C)c2)c1=O showed an IC50 (second compound 0.1 µM) greater than 100 nM, an IC50 (second compound 0.316 µM) greater than 100 nM and an IC50 (second compound 1 µM) greater than 100 nM. It also gave an IC50 (second compound 3.16 µM) greater than 100 nM, an IC50 (second compound 10 µM) greater than 100 nM and a viability, T/C (second compound 0.1 µM, first compound 0.000316 µM) of 89.3%. The viability, T/C (second compound 0.1 µM, first compound 0.001 µM) was 86.6%, the viability, T/C (second compound 0.1 µM, first compound 0.00316 µM) was 99.1% and the viability, T/C (second compound 0.1 µM, first compound 0.01 µM) was 79.5%. It also gave a viability, T/C (second compound 0.1 µM, first compound 0.0316 µM) of 90.2%, a viability, T/C (second compound 0.1 µM, first compound 0.1 µM) of 80.9% and a viability, T/C (second compound 0.316 µM, first compound 0.000316 µM) of 79.2%. It also gave a viability, T/C (second compound 0.316 µM, first compound 0.001 µM) of 95.7%, a viability, T/C (second compound 0.316 µM, first compound 0.00316 µM) of 83.3% and a viability, T/C (second compound 0.316 µM, first compound 0.01 µM) of 72.6%. The viability, T/C (second compound 0.316 µM, first compound 0.0316 µM) was 83.1%, the viability, T/C (second compound 0.316 µM, first compound 0.1 µM) was 71.5% and the viability, T/C (second compound 1 µM, first compound 0.000316 µM) was 76.7%. For the same compound, the viability, T/C (second compound 1 µM, first compound 0.001 µM) was 91.2%, the viability, T/C (second compound 1 µM, first compound 0.00316 µM) was 88.7% and the viability, T/C (second compound 1 µM, first compound 0.01 µM) was 73.4%. The viability, T/C (second compound 1 µM, first compound 0.0316 µM) was 75.1%, the viability, T/C (second compound 1 µM, first compound 0.1 µM) was 74.6% and the viability, T/C (second compound 3.16 µM, first compound 0.000316 µM) was 80.8%. For the same compound, the viability, T/C (second compound 3.16 µM, first compound 0.001 µM) was 83.7%, the viability, T/C (second compound 3.16 µM, first compound 0.00316 µM) was 80.4% and the viability, T/C (second compound 3.16 µM, first compound 0.01 µM) was 73.9%. For the same compound, the viability, T/C (second compound 3.16 µM, first compound 0.0316 µM) was 71.8%, the viability, T/C (second compound 3.16 µM, first compound 0.1 µM) was 70.2% and the viability, T/C (second compound 10 µM, first compound 0.000316 µM) was 69.6%. The viability, T/C (second compound 10 µM, first compound 0.001 µM) was 74.3%, the viability, T/C (second compound 10 µM, first compound 0.00316 µM) was 79.7% and the viability, T/C (second compound 10 µM, first compound 0.01 µM) was 73.6%. The viability, T/C (second compound 10 µM, first compound 0.0316 µM) was 76.8% and the viability, T/C (second compound 10 µM, first compound 0.1 µM) was 66.8%.

O=C(C=Cn1cnc(-c2cc(C(F)(F)F)cc(C(F)(F)F)c2)n1)NNc1cnccn1 + Cc1ccccc1N=Nc1ccc(NC(=O)c2ccnn2C)c(C)c1 showed an IC50 (second compound 0.1 µM) of 76.8 nM, an IC50 (second compound 0.316 µM) of 70.8 nM and an IC50 (second compound 1 µM) of 132 nM. For the same compound, the IC50 (second compound 3.16 µM) was 85.7 nM, the IC50 (second compound 10 µM) was 119 nM and the viability, T/C [1] was 76.4%. It also gave a viability, T/C [2] of 73%, a viability, T/C [3] of 44.9% and a viability, T/C [4] of 37.3%. It also gave a viability, T/C [5] of 43.8%, a viability, T/C [6] of 39.3% and a viability, T/C [7] of 85.4%. For the same compound, the viability, T/C [8] was 64.2%, the viability, T/C [9] was 45.5% and the viability, T/C [10] was 39.7%. It also gave a viability, T/C [11] of 46.6%, a viability, T/C [12] of 39.4% and a viability, T/C [13] of 83%. For the same compound, the viability, T/C [14] was 72%, the viability, T/C [15] was 54% and the viability, T/C [16] was 39.8%. It also gave a viability, T/C [17] of 40%, a viability, T/C [18] of 34.8% and a viability, T/C [19] of 71.1%. The viability, T/C [20] was 63.6%, the viability, T/C [21] was 47% and the viability, T/C [22] was 44.6%. It also gave a viability, T/C [23] of 35.3%, a viability, T/C [24] of 39.9% and a viability, T/C [25] of 70%. It also gave a viability, T/C [26] of 61.3%, a viability, T/C [27] of 50.6% and a viability, T/C [28] of 45.8%. It also gave a viability, T/C [29] of 39.2% and a viability, T/C [30] of 39.7%.

Work on CCc1c2c(nc3ccc(O)cc13)-c1cc3c(c(=O)n1C2)COC(=O)[C@]3(O)CC + CC(CO)NC(=O)c1cc(-c2ccc(Cl)cc2)nn(-c2cnn(C)c2)c1=O yielded an IC50 (second compound 0.1 µM) of 47.4 nM, an IC50 (second compound 0.316 µM) of 24.4 nM and an IC50 (second compound 1 µM) of 28.3 nM. For the same compound, the IC50 (second compound 3.16 µM) was 19.8 nM, the IC50 (second compound 10 µM) was 15.7 nM and the viability, T/C (second compound 0.1 µM, first compound 0.000949 µM) was 96.2%. It also gave a viability, T/C (second compound 0.1 µM, first compound 0.003 µM) of 84.6%, a viability, T/C [1] of 69.7% and a viability, T/C [2] of 54%. The viability, T/C [3] was 44%, the viability, T/C [4] was 26.3% and the viability, T/C (second compound 0.316 µM, first compound 0.000949 µM) was 82.8%. For the same compound, the viability, T/C (second compound 0.316 µM, first compound 0.003 µM) was 94.1%, the viability, T/C [7] was 62.5% and the viability, T/C [8] was 46.9%. For the same compound, the viability, T/C [9] was 36.9%, the viability, T/C [10] was 24.3% and the viability, T/C (second compound 1 µM, first compound 0.000949 µM) was 79%. It also gave a viability, T/C (second compound 1 µM, first compound 0.003 µM) of 75.6%, a viability, T/C [13] of 67.8% and a viability, T/C [14] of 48.9%. The viability, T/C [15] was 32.6%, the viability, T/C [16] was 26% and the viability, T/C (second compound 3.16 µM, first compound 0.000949 µM) was 72.7%. The viability, T/C (second compound 3.16 µM, first compound 0.003 µM) was 73.2%, the viability, T/C [19] was 58.5% and the viability, T/C [20] was 45.6%. For the same compound, the viability, T/C [21] was 27.8%, the viability, T/C [22] was 22.5% and the viability, T/C (second compound 10 µM, first compound 0.000949 µM) was 72%. For the same compound, the viability, T/C (second compound 10 µM, first compound 0.003 µM) was 74%, the viability, T/C [25] was 56.5% and the viability, T/C [26] was 40.5%. For the same compound, the viability, T/C [27] was 26.4% and the viability, T/C [28] was 24.5%.

CCN(c1cc(-c2ccc(CN3CCOCC3)cc2)cc(C(=O)NCc2c(C)cc(C)[nH]c2=O)c1C)C1CCOCC1 + CC(CO)NC(=O)c1cc(-c2ccc(Cl)cc2)nn(-c2cnn(C)c2)c1=O showed an IC50 (second compound 0.1 µM) greater than 3000 nM, an IC50 (second compound 0.316 µM) greater than 3000 nM and an IC50 (second compound 1 µM) greater than 3000 nM. For the same compound, the IC50 (second compound 3.16 µM) was greater than 3000 nM, the IC50 (second compound 10 µM) was greater than 3000 nM and the viability, T/C [1] was 98.2%. The viability, T/C [2] was 100%, the viability, T/C [3] was 93.9% and the viability, T/C [4] was 96.1%. The viability, T/C [5] was 95.7%, the viability, T/C [6] was 94.6% and the viability, T/C [7] was 105%. For the same compound, the viability, T/C [8] was 112%, the viability, T/C [9] was 101% and the viability, T/C [10] was 92.9%. For the same compound, the viability, T/C [11] was 114%, the viability, T/C [12] was 105% and the viability, T/C [13] was 91.1%. The viability, T/C [14] was 95.7%, the viability, T/C [15] was 99% and the viability, T/C [16] was 90%. For the same compound, the viability, T/C [17] was 92.9%, the viability, T/C [18] was 103% and the viability, T/C [19] was 85.1%. For the same compound, the viability, T/C [20] was 95.3%, the viability, T/C [21] was 96.7% and the viability, T/C [22] was 81.2%. It also gave a viability, T/C [23] of 84.8%, a viability, T/C [24] of 102% and a viability, T/C [25] of 86%. The viability, T/C [26] was 97.1%, the viability, T/C [27] was 94.2% and the viability, T/C [28] was 93.8%. For the same compound, the viability, T/C [29] was 78.3% and the viability, T/C [30] was 96.3%.
